Data published in US20240173334A1, “Oral (17-ß)-3-Oxoandrost-4-EN-17-YL Tridecanoate Therapy” (Lipocine Inc., priority 2018, published 2024).

Experiments:
[1] = ascending multiple-dose steady-state PK of undecanoate in dosage form B1 in hypogonadal males (Example 6); format: in vivo, human (adult hypogonadal male subjects)
Protocol: A single-center, randomized, double-blind, placebo-controlled, ascending multiple-dose, serial-group study was conducted to evaluate the safety, tolerability, and the steady-state PK parameters of an oral composition comprising substantially noncrystalline form of (17-ß)-3-oxoandrost-4-en-17-yl undecanoate in adult hypogonadal male subjects (N=84). The treatments were following as: • Treatment A: 75 mg of (17-ß)-3-oxoandrost-4-en-17-yl undecanoate as androst-4-en-17β-ol-3-one ester based on dosage form B1 in BID. • Treatment B: 150 mg of (17-ß)-3-oxoandrost-4-en-17-yl undecanoate as androst-4-en-17β-ol-3-one ester based on dosage form B1 in BID. • Treatment C: 225 mg of (17-ß)-3-oxoandrost-4-en-17-yl undecanoate as androst-4-en-17β-ol-3-one ester based on dosage form B1 in BID. • Treatment D: 300 mg of (17-ß)-3-oxoandrost-4-en-17-yl undecanoate as androst-4-en-17β-ol-3-one ester based on dosage form B1 in BID. • Treatment E: placebo capsules in BID
(§1) The steady state PK parameters were obtained post the treatment initiation.

[2] = multiple-dose steady-state PK of dosage form B7 in hypogonadal males (Example 5); format: in vivo, human (hypogonadal males)
Protocol: A multi-center, open-label, randomized, 4-treatment arm, multiple-dose study was performed to evaluate the safety, tolerability, and the steady-state PK parameters of the oral composition comprising substantially noncrystalline form of (17-ß)-3-oxoandrost-4-en-17-yl tridecanoate (dosage form B7) in hypogonadal males (N=48). The treatments were following as: • Treatment A: 500 mg of (17-ß)-3-oxoandrost-4-en-17-yl tridecanoate as androst-4-en-17β-ol-3-one ester in dosage form B7 in QD. • Treatment B: 750 mg of (17-ß)-3-oxoandrost-4-en-17-yl tridecanoate as androst-4-en-17β-ol-3-one ester in dosage form B7 in QD. • Treatment C: 1000 mg of (17-ß)-3-oxoandrost-4-en-17-yl tridecanoate as androst-4-en-17β-ol-3-one ester in dosage form B7 in QD. • Treatment D: 1250 mg of (17-ß)-3-oxoandrost-4-en-17-yl tridecanoate as androst-4-en-17β-ol-3-one ester in dosage form B7 in QD.
as §1
The evaluation of the relation between Cavg or Cmax and dose amount of (17-ß)-3-oxoandrost-4-en-17-yl tridecanoate was performed using the group mean values of Cavg and Cmax of androst-4-en-17β-ol-3-one obtained at the steady state.

[3] = 75 mg BID, dosage form B1, N=16
[4] = 150 mg BID, dosage form B1, N=16
[5] = 225 mg BID, dosage form B1, N=16
[6] = 300 mg BID, dosage form B1, N=9
[7] = 500 mg QD, dosage form B7, N=12
[8] = 750 mg QD, dosage form B7, N=11
[9] = 1000 mg QD, dosage form B7, N=12
[10] = 1250 mg QD, dosage form B7, N=12

SMILES	Cavg of androst-4-en-17β-ol-3-one, mean (±SD) [1, 3]	Cmax of androst-4-en-17β-ol-3-one, mean (±SD) [1, 3]	Cavg of androst-4-en-17β-ol-3-one, mean (±SD) [1, 4]	Cmax of androst-4-en-17β-ol-3-one, mean (±SD) [1, 4]	Cavg of androst-4-en-17β-ol-3-one, mean (±SD) [1, 5]	Cmax of androst-4-en-17β-ol-3-one, mean (±SD) [1, 5]	Cavg of androst-4-en-17β-ol-3-one, mean (±SD) [1, 6]	Cmax of androst-4-en-17β-ol-3-one, mean (±SD) [1, 6]	Cavg of androst-4-en-17β-ol-3-one, mean (±SD) [2, 7]	Cmax of androst-4-en-17β-ol-3-one, mean (±SD) [2, 7]	Cavg of androst-4-en-17β-ol-3-one, mean (±SD) [2, 8]	Cmax of androst-4-en-17β-ol-3-one, mean (±SD) [2, 8]	Cavg of androst-4-en-17β-ol-3-one, mean (±SD) [2, 9]	Cmax of androst-4-en-17β-ol-3-one, mean (±SD) [2, 9]	Cavg of androst-4-en-17β-ol-3-one, mean (±SD) [2, 10]	Cmax of androst-4-en-17β-ol-3-one, mean (±SD) [2, 10]
CCCCCCCCCCC(=O)O[C@H]1CC[C@H]2[C@@H]3CCC4=CC(=O)CC[C@]4(C)[C@H]3CC[C@]12C [(17-ß)-3-oxoandrost-4-en-17-yl undecanoate]	270 (94) ng/dL	544 (169) ng/dL	319 (77) ng/dL	792 (276) ng/dL	446 (161) ng/dL	1169 (356) ng/dL	582 (184) ng/dL	1644 (644) ng/dL								
CCCCCCCCCCCCC(=O)O[C@H]1CC[C@H]2[C@@H]3CCC4=CC(=O)CC[C@]4(C)[C@H]3CC[C@]12C [[(8R,9S,10R,13S,14S,17S)-10,13-dimethyl-3-oxo-1,2,6,7,8,9,11,12,14,15,16,17-dodecahydrocyclopenta[a]phenanthren-17-yl] tridecanoate]									307 (157) ng/dL	608 (318) ng/dL	352 (41) ng/dL	822 (254) ng/dL	405 (148) ng/dL	930 (326) ng/dL	465 (201) ng/dL	1233 (695) ng/dL
